These results are taken from publication doi:10.1101/2021.04.12.439490v1 (biorxiv, 2021).

For the experiment, the target named is full-length WDR5, C-terminal NanoLuc fusion (WDR5-C) (Homo sapiens, UniProt P61964). Kind of experiment: NanoBRET tracer titration. It counts as cell-based. Background: BRET reads energy transfer from a luciferase to a nearby fluorophore.

A word on the Kd: it is the concentration at which binding is half-saturated.

As to `CN1CCN(c2ccc(-c3ccc(C(=O)NCCCOCCOCCOCCCNC(=O)CCc4ccc5n4[B-](F)(F)[N+]4=C(c6ccc[nH]6)C=CC4=C5)cc3)cc2NC(=O)c2c[nH]c(=O)cc2C(F)(F)F)CC1` [19c], the Kd is approximately 1000 nM.
